Experimental data as given in patent publication US20220184060A1, “PHARMACEUTICAL COMPOSITION COMPRISING SPHERICAL AGGLOMERATES OF TIMAPIPRANT” (Chiesi Farmaceutici S.p.A., priority 2018, published 2022).
Where “and” joins values, the source holds several entries; their conditions need not be identical. Equal values may be shown once.

Columns and labels:
Type in all cases: physicochemical
[1] = Primary particle size distribution by laser diffraction (Malvern Mastersizer 2000) after break up of spherical agglomerates; conditions: for PSD d (0.1), mean result / PSD d (0.5), mean result: mean of 10 acquisitions, primary particles after sonication in water; for PSD d (0.1) / PSD d (0.5): single acquisition (Measure 1-10), primary particles, agglomerates dispersed in water by 10 minutes sonication, 1500 rpm
Experimental: The primary particle size distribution results are produced by means of a Malvern 2000 laser diffraction equipment by the analysis of the primary particles in suspension.
The particle size distribution laser diffraction measures were performed using a Malvern Mastersizer 2000 equipped with a Hydro 2000S cell for the wet suspension of the Timapiprant primary particles. The spherical agglomerates obtained according to the Examples 3 and 5, were dispersed in water by means of 10 minutes sonication and then added to the cell, previously filled with water, until an obscuration within 5-10% was obtained.

[2] = Specific surface area (SSA) by BET nitrogen adsorption (TriStar, Micromeritics); conditions: degassing 2 hours at 40° C.
Experimental: The specific surface areas (SSA) of spherical agglomerates of timapiprant obtained according to Examples 3, 5,7 and the micronized timapiprant were measured was determined by BET nitrogen adsorption using the TriStar of Micromeritics apparatus according to following parameters: • Isotherm, Adsorbing/Desorbing Run: 0 to 1 p/p0 • Vials: ⅜ Inch, Degassing Pre-analysis: 2 hours at 40° C., Nitrogen as adsorbate • Preparation: Evacuation Rate 10 mmHg/s; Unrestricted evacuation from 5 mmHg • Vacuum setpoint: 10 mmHg, Evacuation time: 1 hour • Leak Test Duration: 120 s, Outgas Test Duration: 180 s • Measure p0 at intervals during the analysis, Enter the analysis bath temperature: […]77 kelvin • Equilibration Interval: 5 s; Minimum Equilibration Delay at p/p0≥0,995 per 600 s.

[3] = Flowability of the blend material (API with tablet excipients) before compression; conditions: blend material of API with the excipients of Table 3; for Flow properties of the blend (in words): suitability for direct compression
Experimental: The spherical agglomerates of timapiprant or the micronized timapiprant, together with the microcrystalline cellulose, the croscarmellose sodium, the poloxamer, the sodium lauryl sulphate and the colloidal silicon dioxide in the above amounts, are sieved in a sieve of 1.2 mm. The lactose monohydrate is then added, and the resulting mixture is blended in a free fall blender for at least 15 minutes. The magnesium stearate is added to the obtained mixture which is further blended in the free fall blender for additional 3 minutes.

## Cc1c(Cc2ccc3ccccc3n2)c2cc(F)ccc2n1CC(=O)O [Spherical agglomerates of timapiprant of Example 3] [5-fluoro-2-methyl-3-(quinolin-2-ylmethyl)-1H-indol-1-yl)acetic acid]
[1]
  PSD d (0.1), mean result: 0.28 μm
  PSD d (0.5), mean result: 0.56 μm
  PSD d (0.1): 0.28 μm and 0.275 μm and 0.278 μm and 0.279 μm
  PSD d (0.5): 0.56 μm and 0.555 μm and 0.561 μm and 0.559 μm
[2]
  SSA (specific surface area): 13.1 m^2/g

## Cc1c(Cc2ccc3ccccc3n2)c2cc(F)ccc2n1CC(=O)O [Spherical agglomerates of timapiprant of Example 5] [5-fluoro-2-methyl-3-(quinolin-2-ylmethyl)-1H-indol-1-yl)acetic acid]
[1]
  PSD d (0.1), mean result: 0.31 μm
  PSD d (0.5), mean result: 0.64 μm
  PSD d (0.1): 0.314 μm and 0.315 μm
  PSD d (0.5): 0.64 μm and 0.642 μm and 0.638 μm and 0.641 μm and 0.639 μm
[3]; listed as Spherical agglomerates of timapirpant
  Flowability (s/100 g): 4 sec s/100 g
[3]
  Flow properties of the blend (in words): good flowability
[2]
  SSA (specific surface area): 10.1 m^2/g

## Cc1c(Cc2ccc3ccccc3n2)c2cc(F)ccc2n1CC(=O)O [Spherical agglomerates of timapiprant of Example 7] [5-fluoro-2-methyl-3-(quinolin-2-ylmethyl)-1H-indol-1-yl)acetic acid]
[2]
  SSA (specific surface area): 15.5 m^2/g

## Cc1c(Cc2ccc3ccccc3n2)c2cc(F)ccc2n1CC(=O)O [Micronized Timapiprant, reference compound]
[3]
  Flowability (s/100 g): ∞
  Flow properties of the blend (in words): very poor flow properties
[2]
  SSA (specific surface area): 8.0 m^2/g and 7.8 m^2/g
[2]; listed as micronized timapiprant
  SSA (specific surface area): less than 8.5 m^2/g
